# Where two headings read alike, the source gives them in different places.
# Tests used:
# EGFR = EGFR (Homo sapiens, UniProt P00533); assay: ADP-Glo kinase assay, EGFR; format: biochemical; parameters: purchased BPS Bioscience (assay run externally by the vendor)
# aurora A kinase (AURKA) = target: T1, aurora A kinase (AURKA) (Homo sapiens, UniProt O14965); assay: ADP-Glo kinase assay, Aurora A; format: biochemical
# T1 construct: purchased BPS Bioscience (assay run externally by the vendor)
# T1 sequence (O14965 1-403): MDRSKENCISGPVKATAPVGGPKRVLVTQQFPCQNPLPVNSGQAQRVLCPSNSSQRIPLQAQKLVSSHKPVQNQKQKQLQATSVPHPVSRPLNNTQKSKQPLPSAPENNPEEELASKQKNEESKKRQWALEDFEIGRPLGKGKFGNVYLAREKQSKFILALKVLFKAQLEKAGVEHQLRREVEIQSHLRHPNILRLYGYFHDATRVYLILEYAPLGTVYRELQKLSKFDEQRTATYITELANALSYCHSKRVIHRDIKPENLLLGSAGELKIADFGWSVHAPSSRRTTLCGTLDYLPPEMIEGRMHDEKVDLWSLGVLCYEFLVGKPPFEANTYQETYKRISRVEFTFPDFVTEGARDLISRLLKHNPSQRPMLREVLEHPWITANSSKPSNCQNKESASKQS
# [1] = 10 µM ATP, triplicate, read-out: EGFR IC50 ± SD
# [2] = 10 µM ATP/0.2 mg/ml Poly-Glu-Tyr, read-out: EGFR IC50 (dose-response curve, supplement)
# [3] = 10 µM ATP, triplicate, read-out: AURKA IC50 ± SD
# [4] = 10 µM ATP/0.2 mg/ml Kemptide, read-out: Aurora A IC50 (dose-response curve, supplement)
# Sequence of EGFR (P00533 25-1210): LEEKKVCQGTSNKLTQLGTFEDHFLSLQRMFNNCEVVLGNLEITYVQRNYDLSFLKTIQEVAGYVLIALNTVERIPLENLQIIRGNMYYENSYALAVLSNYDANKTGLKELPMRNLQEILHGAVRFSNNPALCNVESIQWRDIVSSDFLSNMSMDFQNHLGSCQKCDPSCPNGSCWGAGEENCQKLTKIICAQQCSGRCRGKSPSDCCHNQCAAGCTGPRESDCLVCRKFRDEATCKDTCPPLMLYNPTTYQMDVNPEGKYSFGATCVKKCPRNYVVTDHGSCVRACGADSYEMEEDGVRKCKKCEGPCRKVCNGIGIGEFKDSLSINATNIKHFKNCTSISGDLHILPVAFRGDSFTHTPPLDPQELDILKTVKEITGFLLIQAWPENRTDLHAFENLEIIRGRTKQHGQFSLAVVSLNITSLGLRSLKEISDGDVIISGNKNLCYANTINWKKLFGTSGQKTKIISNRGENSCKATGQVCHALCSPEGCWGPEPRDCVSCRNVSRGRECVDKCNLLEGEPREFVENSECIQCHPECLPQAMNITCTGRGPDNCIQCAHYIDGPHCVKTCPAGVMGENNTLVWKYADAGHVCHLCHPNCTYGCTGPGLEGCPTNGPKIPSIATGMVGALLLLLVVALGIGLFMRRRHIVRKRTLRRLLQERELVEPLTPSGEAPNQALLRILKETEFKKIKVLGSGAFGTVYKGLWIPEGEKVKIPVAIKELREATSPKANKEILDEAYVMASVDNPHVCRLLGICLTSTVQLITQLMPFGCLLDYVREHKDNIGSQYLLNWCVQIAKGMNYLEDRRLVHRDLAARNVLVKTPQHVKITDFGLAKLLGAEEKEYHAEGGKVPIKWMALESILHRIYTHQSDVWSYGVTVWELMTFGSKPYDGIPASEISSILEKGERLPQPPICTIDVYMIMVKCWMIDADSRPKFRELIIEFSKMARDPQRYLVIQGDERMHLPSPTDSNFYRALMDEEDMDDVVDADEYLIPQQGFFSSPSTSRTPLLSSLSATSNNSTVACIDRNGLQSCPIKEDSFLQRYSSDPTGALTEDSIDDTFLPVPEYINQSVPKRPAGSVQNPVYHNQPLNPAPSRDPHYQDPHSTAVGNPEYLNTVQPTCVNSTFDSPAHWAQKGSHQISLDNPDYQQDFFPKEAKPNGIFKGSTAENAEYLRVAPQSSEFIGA
structure (smiles),measurement,setting,value
"c1ccc(Nc2ncnc3[nH]ccc23)cc1 [Compound 1, N^4-phenyl-7H-pyrrolo[2,3-d]pyrimidine-4-amine]",IC50,EGFR; [1],254 ± 26 nM
same,IC50,EGFR; [2],253 nM
same,EGFR % Activity Set1,EGFR; Log[nM] 0,103%
same,EGFR % Activity Set2,EGFR; Log[nM] 0,98%
same,EGFR % Activity Set3,EGFR; Log[nM] 0,103%
same,EGFR % Activity Set1,EGFR; Log[nM] 1.0,101%
same,EGFR % Activity Set2,EGFR; Log[nM] 1.0,110%
same,EGFR % Activity Set3,EGFR; Log[nM] 1.0,106%
same,EGFR % Activity Set1,EGFR; Log[nM] 1.5,92%
same,EGFR % Activity Set2,EGFR; Log[nM] 1.5,91%
same,EGFR % Activity Set3,EGFR; Log[nM] 1.5,94%
same,EGFR % Activity Set1,EGFR; Log[nM] 2.0,66%
same,EGFR % Activity Set2,EGFR; Log[nM] 2.0,71%
same,EGFR % Activity Set3,EGFR; Log[nM] 2.0,76%
same,EGFR % Activity Set1,EGFR; Log[nM] 2.5,39%
same,EGFR % Activity Set2,EGFR; Log[nM] 2.5,42%
same,EGFR % Activity Set3,EGFR; Log[nM] 2.5,40%
same,EGFR % Activity Set1,EGFR; Log[nM] 3.0,24%
same,EGFR % Activity Set2,EGFR; Log[nM] 3.0,22%
same,EGFR % Activity Set3,EGFR; Log[nM] 3.0,22%
same,EGFR % Activity Set1,EGFR; Log[nM] 3.5,9%
same,EGFR % Activity Set2,EGFR; Log[nM] 3.5,9%
same,EGFR % Activity Set3,EGFR; Log[nM] 3.5,9%
same,EGFR % Activity Set1,EGFR; Log[nM] 4.0,4%
same,EGFR % Activity Set2,EGFR; Log[nM] 4.0,5%
same,EGFR % Activity Set3,EGFR; Log[nM] 4.0,5%
same,EGFR % Activity Set1,EGFR; Log[nM] 4.5,2%
same,EGFR % Activity Set2,EGFR; Log[nM] 4.5,2%
same,EGFR % Activity Set3,EGFR; Log[nM] 4.5,2%
same,EGFR % Activity Set1,EGFR; Log[nM] 5.0,1%
same,EGFR % Activity Set2,EGFR; Log[nM] 5.0,1%
same,EGFR % Activity Set3,EGFR; Log[nM] 5.0,1%
same,IC50,aurora A kinase (AURKA); [3],5580 ± 660 nM
same,IC50,aurora A kinase (AURKA); [4],5600 nM
same,Aurora A % Activity Set1,aurora A kinase (AURKA); Log[nM] 0,91%
same,Aurora A % Activity Set2,aurora A kinase (AURKA); Log[nM] 0,91%
same,Aurora A % Activity Set3,aurora A kinase (AURKA); Log[nM] 0,92%
same,Aurora A % Activity Set1,aurora A kinase (AURKA); Log[nM] 1.0,87%
same,Aurora A % Activity Set2,aurora A kinase (AURKA); Log[nM] 1.0,90%
same,Aurora A % Activity Set3,aurora A kinase (AURKA); Log[nM] 1.0,91%
same,Aurora A % Activity Set1,aurora A kinase (AURKA); Log[nM] 1.5,93%
same,Aurora A % Activity Set2,aurora A kinase (AURKA); Log[nM] 1.5,98%
same,Aurora A % Activity Set3,aurora A kinase (AURKA); Log[nM] 1.5,100%
same,Aurora A % Activity Set1,aurora A kinase (AURKA); Log[nM] 2.0,96%
same,Aurora A % Activity Set2,aurora A kinase (AURKA); Log[nM] 2.0,97%
same,Aurora A % Activity Set3,aurora A kinase (AURKA); Log[nM] 2.0,100%
same,Aurora A % Activity Set1,aurora A kinase (AURKA); Log[nM] 2.5,99%
same,Aurora A % Activity Set2,aurora A kinase (AURKA); Log[nM] 2.5,103%
same,Aurora A % Activity Set3,aurora A kinase (AURKA); Log[nM] 2.5,104%
same,Aurora A % Activity Set1,aurora A kinase (AURKA); Log[nM] 3.0,86%
same,Aurora A % Activity Set2,aurora A kinase (AURKA); Log[nM] 3.0,90%
same,Aurora A % Activity Set3,aurora A kinase (AURKA); Log[nM] 3.0,93%
same,Aurora A % Activity Set1,aurora A kinase (AURKA); Log[nM] 3.5,63%
same,Aurora A % Activity Set2,aurora A kinase (AURKA); Log[nM] 3.5,70%
same,Aurora A % Activity Set3,aurora A kinase (AURKA); Log[nM] 3.5,70%
same,Aurora A % Activity Set1,aurora A kinase (AURKA); Log[nM] 4.0,28%
same,Aurora A % Activity Set2,aurora A kinase (AURKA); Log[nM] 4.0,31%
same,Aurora A % Activity Set3,aurora A kinase (AURKA); Log[nM] 4.0,32%
same,Aurora A % Activity Set1,aurora A kinase (AURKA); Log[nM] 4.5,11%
same,Aurora A % Activity Set2,aurora A kinase (AURKA); Log[nM] 4.5,12%
same,Aurora A % Activity Set3,aurora A kinase (AURKA); Log[nM] 4.5,13%
same,Aurora A % Activity Set1,aurora A kinase (AURKA); Log[nM] 5.0,5%
same,Aurora A % Activity Set2,aurora A kinase (AURKA); Log[nM] 5.0,5%
same,Aurora A % Activity Set3,aurora A kinase (AURKA); Log[nM] 5.0,5%
"Fc1cc(Nc2ncnc3[nH]ccc23)ccc1Cl [Compound 3, N^4-(3-fluoro-4-chlorophenyl)-7H-pyrrolo[2,3-d]pyrimidine-4-amine]",EGFR inhibition (in words),EGFR,single-digit nanomolar EGFR inhibition
same,IC50,EGFR; [1],5.98 ± 0.61 nM
same,IC50,EGFR; [2],5.9 nM
same,EGFR % Activity Set1,EGFR; Log[nM] 0,57%
same,EGFR % Activity Set2,EGFR; Log[nM] 0,58%
same,EGFR % Activity Set3,EGFR; Log[nM] 0,56%
same,EGFR % Activity Set1,EGFR; Log[nM] 1.0,38%
same,EGFR % Activity Set2,EGFR; Log[nM] 1.0,37%
same,EGFR % Activity Set3,EGFR; Log[nM] 1.0,40%
same,EGFR % Activity Set1,EGFR; Log[nM] 1.5,13%
same,EGFR % Activity Set2,EGFR; Log[nM] 1.5,16%
same,EGFR % Activity Set3,EGFR; Log[nM] 1.5,16%
same,EGFR % Activity Set1,EGFR; Log[nM] 2.0,7%
same,EGFR % Activity Set2,EGFR; Log[nM] 2.0,7%
same,EGFR % Activity Set3,EGFR; Log[nM] 2.0,8%
same,EGFR % Activity Set1,EGFR; Log[nM] 2.5,2%
same,EGFR % Activity Set2,EGFR; Log[nM] 2.5,4%
same,EGFR % Activity Set3,EGFR; Log[nM] 2.5,3%
same,EGFR % Activity Set1,EGFR; Log[nM] 3.0,1%
same,EGFR % Activity Set2,EGFR; Log[nM] 3.0,1%
same,EGFR % Activity Set3,EGFR; Log[nM] 3.0,2%
same,EGFR % Activity Set1,EGFR; Log[nM] 3.5,0%
same,EGFR % Activity Set2,EGFR; Log[nM] 3.5,1%
same,EGFR % Activity Set3,EGFR; Log[nM] 3.5,0%
same,EGFR % Activity Set1,EGFR; Log[nM] 4.0,0%
same,EGFR % Activity Set2,EGFR; Log[nM] 4.0,0%
same,EGFR % Activity Set3,EGFR; Log[nM] 4.0,0%
same,EGFR % Activity Set1,EGFR; Log[nM] 4.5,0%
same,EGFR % Activity Set2,EGFR; Log[nM] 4.5,0%
same,EGFR % Activity Set3,EGFR; Log[nM] 4.5,0%
same,EGFR % Activity Set1,EGFR; Log[nM] 5.0,0%
same,EGFR % Activity Set2,EGFR; Log[nM] 5.0,0%
same,EGFR % Activity Set3,EGFR; Log[nM] 5.0,0%
same,IC50,aurora A kinase (AURKA); [3],3290 ± 150 nM
same,IC50,aurora A kinase (AURKA); [4],3300 nM
same,Aurora A % Activity Set1,aurora A kinase (AURKA); Log[nM] 0,95%
same,Aurora A % Activity Set2,aurora A kinase (AURKA); Log[nM] 0,93%
same,Aurora A % Activity Set3,aurora A kinase (AURKA); Log[nM] 0,100%
same,Aurora A % Activity Set1,aurora A kinase (AURKA); Log[nM] 1.0,99%
same,Aurora A % Activity Set2,aurora A kinase (AURKA); Log[nM] 1.0,96%
same,Aurora A % Activity Set3,aurora A kinase (AURKA); Log[nM] 1.0,101%
same,Aurora A % Activity Set1,aurora A kinase (AURKA); Log[nM] 1.5,99%
same,Aurora A % Activity Set2,aurora A kinase (AURKA); Log[nM] 1.5,94%
same,Aurora A % Activity Set3,aurora A kinase (AURKA); Log[nM] 1.5,105%
same,Aurora A % Activity Set1,aurora A kinase (AURKA); Log[nM] 2.0,105%
same,Aurora A % Activity Set2,aurora A kinase (AURKA); Log[nM] 2.0,104%
same,Aurora A % Activity Set3,aurora A kinase (AURKA); Log[nM] 2.0,107%
same,Aurora A % Activity Set1,aurora A kinase (AURKA); Log[nM] 2.5,104%
same,Aurora A % Activity Set2,aurora A kinase (AURKA); Log[nM] 2.5,105%
same,Aurora A % Activity Set3,aurora A kinase (AURKA); Log[nM] 2.5,103%
same,Aurora A % Activity Set1,aurora A kinase (AURKA); Log[nM] 3.0,78%
same,Aurora A % Activity Set2,aurora A kinase (AURKA); Log[nM] 3.0,75%
same,Aurora A % Activity Set3,aurora A kinase (AURKA); Log[nM] 3.0,77%
same,Aurora A % Activity Set1,aurora A kinase (AURKA); Log[nM] 3.5,53%
same,Aurora A % Activity Set2,aurora A kinase (AURKA); Log[nM] 3.5,57%
same,Aurora A % Activity Set3,aurora A kinase (AURKA); Log[nM] 3.5,52%
same,Aurora A % Activity Set1,aurora A kinase (AURKA); Log[nM] 4.0,17%
same,Aurora A % Activity Set2,aurora A kinase (AURKA); Log[nM] 4.0,16%
same,Aurora A % Activity Set3,aurora A kinase (AURKA); Log[nM] 4.0,16%
same,Aurora A % Activity Set1,aurora A kinase (AURKA); Log[nM] 4.5,7%
same,Aurora A % Activity Set2,aurora A kinase (AURKA); Log[nM] 4.5,6%
same,Aurora A % Activity Set3,aurora A kinase (AURKA); Log[nM] 4.5,7%
same,Aurora A % Activity Set1,aurora A kinase (AURKA); Log[nM] 5.0,6%
same,Aurora A % Activity Set2,aurora A kinase (AURKA); Log[nM] 5.0,5%
same,Aurora A % Activity Set3,aurora A kinase (AURKA); Log[nM] 5.0,5%

# From article PMC6009956, “Design, synthesis and biological activity of N^4-phenylsubstituted-7H-pyrrolo[2,3-d]pyrimidin-4-amines as dual inhibitors of aurora kinase A and epidermal growth factor receptor kinase” (Journal of Enzyme Inhibition and Medicinal Chemistry, 2017)
